# Test results published in ChEMBL document CHEMBL1201862, “PubChem BioAssay data set” (2004).
# “And” between values parts separate entries of the source, which are not always exact repeats. Equal entries are not always repeated.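 96-well plates; 48 h exposure; 5 concentrations. Endpoints by linear interpolation between flanking doses. Not reached: highest tested concentration assigned. GI50 marks 50% less growth.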 The source made the active and inactive calls. Rule as the data show it: active = GI50 up to about 1.1 µM and inactive = higher.
# Key:
# Assay in all cases: DTP human tumour cell line panel, 48 h
# HCT-116 = tested on: HCT-116
# OVCAR-3 = tested on: OVCAR-3
# A498 = tested on: A498
# TK-10 = tested on: TK-10
# MOLT-4 = tested on: MOLT-4
# Hs-578T = tested on: Hs-578T
# KM12 = tested on: KM12
# SF-295 = tested on: SF-295
# LOX IMVI = tested on: LOX IMVI
# UACC-62 = tested on: UACC-62
# SF-268 = tested on: SF-268
# UACC-257 = tested on: UACC-257
# MDA-N = tested on: MDA-N
# SN12C = tested on: SN12C
# NCI/ADR-RES = tested on: NCI/ADR-RES
# OVCAR-8 = tested on: OVCAR-8
# HCT-15 = tested on: HCT-15
# OVCAR-4 = tested on: OVCAR-4
# NCI-H226 = tested on: NCI-H226
Structure (SMILES),GI50 (HCT-116),GI50 (OVCAR-3),GI50 (A498),GI50 (TK-10),GI50 (MOLT-4),GI50 (Hs-578T),GI50 (KM12),GI50 (SF-295),GI50 (LOX IMVI),GI50 (UACC-62),GI50 (SF-268),GI50 (UACC-257),GI50 (MDA-N),GI50 (SN12C),GI50 (NCI/ADR-RES),GI50 (OVCAR-8),GI50 (HCT-15) [µM],GI50 (OVCAR-4),GI50 (NCI-H226)
O=C(O)c1nnsc1COCc1ccccc1,> 100 µM (inactive),> 100 µM (inactive),> 100 µM (inactive),> 100 µM (inactive),> 100 µM (inactive),> 100 µM (inactive),> 100 µM (inactive),> 100 µM (inactive),> 100 µM (inactive),> 100 µM (inactive),> 100 µM (inactive),> 100 µM (inactive),> 100 µM (inactive),> 100 µM (inactive),> 100 µM (inactive),> 100 µM (inactive),> 100,> 100 µM (inactive),–
CCC(C)C1=C(O)[N+]2([O-])Oc3ccc(-c4c(O)c(O)c(-c5ccc(OC(C)=O)cc5)c(OC(C)=O)c4OC(C)=O)cc3OC2(C(C)CC)C(=O)N1O (centres undefined),–,> 50 µM (inactive),19.3 µM (inactive),> 50 µM (inactive),23.7 µM (inactive) and 14.4 µM (inactive),> 50 µM (inactive),> 50 µM (inactive),> 50 µM (inactive),38.3 µM (inactive) and 37.2 µM (inactive),> 50 µM (inactive) and 31.3 µM (inactive),41.2 µM (inactive),> 50 µM (inactive),36.3 µM (inactive) and 24.3 µM (inactive),42.9 µM (inactive),> 50 µM (inactive),> 50 µM (inactive),> 50,12.9 µM (inactive) and 14.9 µM (inactive),–
NC(=O)c1nnsc1NC=O,> 100 µM (inactive),–,> 100 µM (inactive),–,> 100 µM (inactive),> 100 µM (inactive),> 100 µM (inactive),> 100 µM (inactive),> 100 µM (inactive),> 100 µM (inactive),> 100 µM (inactive),> 100 µM (inactive),> 100 µM (inactive),> 100 µM (inactive),> 100 µM (inactive),> 100 µM (inactive),> 100,–,> 100 µM (inactive)
Cc1cc2c(C)cc(=O)[nH]c2cc1N,> 100 µM (inactive),> 100 µM (inactive),> 100 µM (inactive),–,> 100 µM (inactive),–,> 100 µM (inactive),> 100 µM (inactive),> 100 µM (inactive),35.4 µM (inactive),–,> 100 µM (inactive),> 100 µM (inactive),> 100 µM (inactive),> 100 µM (inactive),> 100 µM (inactive),> 100,> 100 µM (inactive),> 100 µM (inactive)
COc1cc(C2SCC(=O)N2c2ccc(Cl)cc2)cc(I)c1O (centres undefined),18.5 µM (inactive),33.8 µM (inactive),–,> 94.6 µM (inactive),21.9 µM (inactive),97.1 µM (inactive),7.01 µM (inactive),4.72 µM (inactive),–,0.305 µM (active),> 86.7 µM (inactive),11.8 µM (inactive),3.37 µM (inactive),> 100 µM (inactive),> 69 µM (inactive),> 100 µM (inactive),–,3.37 µM (inactive),> 90.2 µM (inactive)
CC(=O)N1N=C(c2c(O)ccc3ccccc23)CC1c1ccc(Cl)cc1 (centres undefined),15 µM (inactive),14.1 µM (inactive),26.1 µM (inactive),30.1 µM (inactive),10.9 µM (inactive),17.1 µM (inactive),13.7 µM (inactive),19.9 µM (inactive),–,14.1 µM (inactive),26.3 µM (inactive),27.9 µM (inactive),19.5 µM (inactive),18.7 µM (inactive),14.5 µM (inactive),26.9 µM (inactive),28.4,19.6 µM (inactive),40 µM (inactive)
COc1cccc2c1C(=O)c1ccc3cc(CCl)cc(O)c3c1C2=O,0.1 µM (active),0.243 µM (active),1.19 µM (inactive),0.238 µM (active),0.238 µM (active),0.362 µM (active),0.0605 µM (active),0.314 µM (active),0.158 µM (active),0.202 µM (active),0.379 µM (active),0.269 µM (active),0.231 µM (active),0.163 µM (active),0.353 µM (active),0.228 µM (active),0.254,–,0.869 µM (active)
Cc1cc(C)nc(NS(=O)(=O)c2ccc(Nc3c4ccccc4nc4c(C(=O)NC(CO)(CO)CO)cccc34)cc2)n1,–,29.3 µM (inactive),31.3 µM (inactive),31.3 µM (inactive),6.1 µM (inactive),38.4 µM (inactive),17.9 µM (inactive),30.8 µM (inactive),17.3 µM (inactive),31.3 µM (inactive),29.5 µM (inactive),42 µM (inactive),24.1 µM (inactive),29.6 µM (inactive),> 100 µM (inactive),39.3 µM (inactive),52,45.9 µM (inactive),–
O=C(/C=C/c1ccc2ccccc2c1)NCc1ccc(C(=O)NCCc2ccccc2)cc1,> 100 µM (inactive),> 100 µM (inactive),> 100 µM (inactive),–,> 100 µM (inactive),–,> 100 µM (inactive),> 100 µM (inactive),> 100 µM (inactive),> 100 µM (inactive),> 100 µM (inactive),> 100 µM (inactive),> 100 µM (inactive),> 100 µM (inactive),> 100 µM (inactive),> 100 µM (inactive),> 100,> 100 µM (inactive),43.5 µM (inactive)
Cc1cccc(C(C)C)c1NC(=O)C(=O)CC(=O)c1sc(Nc2ccccc2Cl)nc1C,8.79 µM (inactive),32 µM (inactive),> 100 µM (inactive),90.2 µM (inactive),25.6 µM (inactive),21.9 µM (inactive),23.1 µM (inactive),12.9 µM (inactive),31.8 µM (inactive),42.4 µM (inactive),58.2 µM (inactive),54.5 µM (inactive),9.79 µM (inactive),64.9 µM (inactive),–,–,30.9,83.4 µM (inactive),–
COC(=O)c1ccc(Oc2nc3ccccc3nc2-c2cccs2)cc1,41.3 µM (inactive),> 100 µM (inactive),–,26.7 µM (inactive),> 100 µM (inactive),19.5 µM (inactive),> 100 µM (inactive),18.7 µM (inactive),> 100 µM (inactive),40.6 µM (inactive),21.3 µM (inactive),> 100 µM (inactive),> 100 µM (inactive),> 100 µM (inactive),64.1 µM (inactive),51.8 µM (inactive),75.5,> 100 µM (inactive),–
CCN(C(=O)N[C@@H](CC(C)C)C(=O)NCC(=O)OC)c1ccccc1,> 100 µM (inactive),> 100 µM (inactive),–,> 100 µM (inactive),> 100 µM (inactive),–,> 100 µM (inactive),> 100 µM (inactive),44.3 µM (inactive),30.8 µM (inactive),–,25.9 µM (inactive),> 100 µM (inactive),> 100 µM (inactive),> 100 µM (inactive),> 100 µM (inactive),> 100,> 100 µM (inactive),> 100 µM (inactive)
O=S(=O)(O)c1c(Cl)cc(O)c2ncccc12,> 100 µM (inactive),> 100 µM (inactive),> 100 µM (inactive),–,> 100 µM (inactive),–,> 100 µM (inactive),> 100 µM (inactive),> 100 µM (inactive),> 100 µM (inactive),–,> 100 µM (inactive),> 100 µM (inactive),> 100 µM (inactive),> 100 µM (inactive),> 100 µM (inactive),> 100,> 100 µM (inactive),> 100 µM (inactive)
COC(=O)CC(C#N)(OP1(=O)OC(c2ccccc2)C(C)N1C)c1ccccc1 (centres undefined),24.2 µM (inactive),18.8 µM (inactive),44.6 µM (inactive),29 µM (inactive),25.5 µM (inactive),30.3 µM (inactive),20.6 µM (inactive),42 µM (inactive),21 µM (inactive),19.8 µM (inactive),30.3 µM (inactive),20.6 µM (inactive),26.8 µM (inactive),29.6 µM (inactive),40.1 µM (inactive),22.8 µM (inactive),28.6,–,–
COc1ccc(-c2nc(N(C)C)c3ccccc3n2)cc1,4.57 µM (inactive),–,–,18.3 µM (inactive),3.91 µM (inactive),13.5 µM (inactive),13.4 µM (inactive),14.2 µM (inactive),11 µM (inactive),12.7 µM (inactive),15.9 µM (inactive),16.4 µM (inactive),14.9 µM (inactive),7.89 µM (inactive),5.09 µM (inactive),11.3 µM (inactive),12.1,32.6 µM (inactive),3.31 µM (inactive)
CN(C)c1ccc(/C=C2\CCCCCC2=O)cc1,57.3 µM (inactive),71.1 µM (inactive),> 100 µM (inactive),> 100 µM (inactive),> 100 µM (inactive),–,> 100 µM (inactive),> 100 µM (inactive),–,90.4 µM (inactive),> 100 µM (inactive),74.3 µM (inactive),> 100 µM (inactive),> 100 µM (inactive),> 100 µM (inactive),> 100 µM (inactive),–,–,–
COC(=O)NCCc1n[nH]c2c1C(=O)C=C(Nc1ccccc1OC)C2=O,18.9 µM (inactive),7.64 µM (inactive),31.7 µM (inactive),53.7 µM (inactive),21.8 µM (inactive),28.4 µM (inactive),24.8 µM (inactive),44.5 µM (inactive),23 µM (inactive),18.7 µM (inactive),45.7 µM (inactive),17 µM (inactive),18.1 µM (inactive),40.3 µM (inactive),21.1 µM (inactive),13.6 µM (inactive),28.4,16.8 µM (inactive),–
